Test results taken from patent US8097624B2, “Cycloalkyl derivatives of 3-hydroxy-4-pyridinones” (Apotex Inc., priority 2006, dated 2012).
Values joined by “and” are separate entries in the source; they are usually repeats but may differ in a detail not shown here. Equal values may be shown once.

Columns and labels:
[1] = pKa determination by potentiometric or spectrophotometric titration; assay type: physicochemical; conditions: titration in 0.1 M NaCl at 22° C.
Description: The pKa values of ligands were determined by potentiometric titration when a ligand concentration greater than 1×10^−2 M in water could be prepared. In a typical experiment, the sample solution (2.67×10^−2 M) was prepared by the following method: Apo6619 (92.6 mg) was weighed into a 25-ml beaker, followed by the addition of 0.1 M NaCl (15 ml). The mixture was sonicated for 10 minutes to give a clear colorless solution. Nitrogen gas was then allowed to bubble through the solution. 1.000 N Hydrochloric acid (624 μl, 1.5 equivalent) was added to the solution to give pH 1.88. The solution was allowed to equilibrate at 22° C. for 60 minutes.
The solution was then titrated against 1.000 N NaOH at 22° C. to reach pH 11.8. For each addition of base, the solution was allowed to equilibrate until a constant pH reading was reached. The volume of the base added and the pH reading were recorded for each measurement. 137 measurements were taken to finish the experiment.
The data set of pH vs. base volume was analyzed using Hyperquad 2000 (Version 2.1, Peter Gans, University of Leeds).
The pKa values of ligands can be determined by spectrophotometric titration when both the conjugated acid and base absorb in the UV-Visible region. In a typical experiment, the sample solution was prepared by the following method: Apo6617 (0.792 mg) was weighed into an 80-ml beaker, followed by the addition of 0.1 M NaCl (50 ml). The mixture was sonicated for 5 minutes to give a clear colorless solution. Nitrogen gas was allowed to bubble through the solution. 1.000 N NaOH (50 μl) was added to give pH 10.9. The solution was allowed to equilibrate at 22° C. for 1 hour. A sipper system was used for the circulation of the sample solution between the beaker and the flow cell.
The sample solution was titrated against standard hydrochloric acid solutions at 22° C. to reach pH 1.40. After each addition of acid the solution was allowed to equilibrate until a constant pH reading was reached. The pH and the UV-Vis spectrum were recorded for each measurement. The peak wavelengths of the deprotonated species (L^−), the neutral species (LH), and the protonated species (LH2^+) were 314 nm, 281 nm, and 249 nm, respectively. In the region of pH>6, after each addition of acid there was a slight decrease in the absorbance at 314 nm and a slight increase at 281 nm in each spectrum, whereas in the region of pH<5, after each addition of acid there was a slight decrease in the absorbance at 281 nm and a slight increase at 249 nm in each spectrum. The solution was titrated until there was no obvious change in the spectra after several subsequent additions of acid. 116 measurements were taken to finish the experiment.
The resulting data set was then analyzed using pHAB (Peter Gans, University of Leeds).

Iron Overloaded Rats = test: Second rat study: urinary and fecal iron excretion at 28, 113 and 450 μmoles/kg; assay type: in vivo; conditions: n=6/group, mean ± 1SD
Description: A second study was conducted to confirm the efficacy results of Apo6619 and Apo6617 observed in the above study and to further characterize the efficacy of these compounds at doses lower than 450 μmol/kg. The study was conducted in two separate groups of iron overloaded rats. The method of iron overloading, preparation of dosing solutions and assessment of efficacy in these rats was similar to that described in the above study.
The first group of rats (n=6) were treated with Apo6619 consecutively at doses of 28, 113 and 450 μmoles/kg. Similarly, the second group of rats (also n=6) was treated with Apo6617 at these same three doses. Similar to the previous study, both Apo6619 and Apo6617 produced an increase in urinary iron excretion at the 450 μmoles/kg dose (Apo6619: 11±3 at baseline to 335±76 1-day post-Apo6619, p=0.0001; Apo6617: 14±4 at baseline to 183±20 1-day post-Apo6617, p=0.0003). […] At 28 μmoles/kg, only Apo6617 produced an increase in iron excretion (p=0.01) above baseline. However, the magnitude of the increased excretion was small for both Apo6619 and Apo6617.

[2] = Distribution coefficient determination (D7.4), 1-octanol / MOPS buffer; assay type: physicochemical; conditions: 1-octanol / MOPS buffer pH 7.4
Description: MOPS buffer (50 mM, pH=7.4) and 1-octanol were used as the aqueous phase and the organic phase, respectively, for distribution coefficient determinations. The MOPS buffer and 1-octanol were pre-saturated with each other before use.
In a typical experiment, an organic stock solution of Apo6618 (1-cyclopropyl-3-hydroxy-6-methyl-4-oxo-1,4-dihydro-pyridine-2-carboxylic acid cyclopropylamide) was prepared by weighing out 0.50 mg of the compound into a 10-mL volumetric flask and bringing to volume with 1-octanol. The solution was then sonicated for 60 minutes so that the sample could dissolve completely. The concentration of the stock solution was calculated as C^0org=2.0×10^−4 M. The organic standard solution of Apo6618 with 2.0×10^−5 M was prepared in a 10-mL volumetric flask by 10 times dilution of the stock solution with 1-octanol. The sample solution was prepared in a 10-mL volumetric flask. The stock sample solution (3 ml) was pipetted into the flask followed by the addition of MOPS buffer (3 ml). The standard and sample solutions were then vortexed for 2 hours. After vortexing, the solutions were transferred to test tubes and centrifuged at 4000 rpm for 15 minutes. UV-Vis spectra were recorded for the standard solution and the organic (top) phase of the sample solution at 22° C. The distribution coefficient, D7.4, was calculated using the following equation: D7.4=[Aorg/(C^0orgεorg−Aorg)]×(Vaqu/Vorg)
Where εorg=the molar extinction coefficient of the peak wavelength (λmax) obtained from the UV-Vis spectrum of the organic standard solution; Aorg=absorbance of the organic phase in the sample solution at the same λmax; C^0org=the concentration of the stock solution; Vaqu=the volume of MOPS buffer in the sample solution; Vorg=the volume of the stock solution in the sample solution.

| pKas (higher value, phenolic C3 OH) [1] | pKas (lower value, LH2+) [1] | D7.4 [2] | Compound | Iron excretion, Urine (1 day post-chelator) (Iron Overloaded Rats; 28 μmol/kg) [µg/day/kg] | Iron excretion, Feces (3 days) (Iron Overloaded Rats; 113 μmol/kg) [µg/day/kg] | Iron excretion, Urine (1 day post-chelator) (Iron Overloaded Rats; 113 μmol/kg) | Iron excretion, Feces (3 days) (Iron Overloaded Rats; 450 μmol/kg) [µg/day/kg] | Iron excretion, Urine (1 day post-chelator) (Iron Overloaded Rats; 450 μmol/kg) |
| --- | --- | --- | --- | --- | --- | --- | --- | --- |
| 8.6 and 8.5 | 2.5 and 2.4 | 0.099 | Cc1cc(=O)c(O)c(C(=O)NC2CC2)n1C [Apo6617, 3-Hydroxy-1,6-dimethyl-4-oxo-1,4-dihydro-pyridine-2-carboxylic Acid Cyclopropylamide] | 24 ± 6 | 2411 ± 335 | 28 ± 8 µg/day/kg | 3228 ± 437 | 183 ± 20 µg/day/kg |
| – | – | 0.109 | CNC(=O)c1c(O)c(=O)cc(C)n1C1CC1 [Apo6619, 1-Cyclopropyl-3-hydroxy-6-methyl-4-oxo-1,4-dihydro-pyridine-2-carboxylic Acid Methylamide] | 14 ± 4 | 3033 ± 1076 | 51 ± 15*τ μg/day/kg | 3831 ± 790 | 335±76 μg/day/kg and 335 ± 76*τ μg/day/kg |
| 9.64 | 3.56 | – | Cc1c(O)c(=O)ccn1C [deferiprone, 1,2-dimethyl-3-hydroxy-4-pyridinone, reference compound] | – | – | – | – | – |
